Data reported in patent US20250339462A1, “CANCER TREATMENT USING ULTRA-HIGH CONCENTRATION GASEOUS NITRIC OXIDE AND A CHECKPOINT INHIBITOR” (Beyond Air, Inc., priority 2022, published 2025).

Columns and labels:
[1] = tested on: CT26 tumor-bearing mice; assay: CT26 tumor model, UNO + anti-mPD-1 + CpG-B; format: in vivo, mouse
Procedure: Preparation of cancer cells for injection—Mouse colon carcinoma CT26.WT cells (ATCC, Cat no. CRL-2638) suspended in Hanks' Balanced Salt Solution (HBSS) (Biological Industries, Israel), at a concentration of 5.0×10^6 cells/ml, were freshly prepared on the day of cancer model induction. Cells were grown to 70% confluency and were harvested using trypsin (Biological Industries, Israel), and counted using a cell counter device. The cells were then centrifuged at 1,200 rpm (241×g) for 8 minutes, and the pellet was re-suspended in ice cold HBSS at 5.0×10^6 in 1 ml (5.0×10^5 cells in 100 μl solution). Cell viability was >90% as determined by trypan blue staining prior to inoculation to mice. At the point of inoculation, cells were at passage 8 at most.
Inoculation of CT26 cancer cells to mice—100 μl/mouse of the_CT26 cancer cells suspension (concentration of 5.0×10^6 cells/ml) were inoculated subcutaneously (s.c.) to the right flank of male BALB/c mice, which were 10 weeks of age (Envigo, the Netherlands). Five days later, CT26 cells at the same dose were inoculated s.c. to the left flank of each mouse. Ten days post primary tumor inoculation tumor-bearing mice were divided into the following groups (day 0) as depicted in Table 2 below and treated according to the timeline shown in FIG. 20:
Mice were followed up for totally 52 days. Tumor take was monitored by palpation of the flank and tumor growth was monitored by measurement of the tumor dimensions using a digital caliper. Mice were sacrificed and excluded from the study if their total tumor volume was >1500 mm^3 or their distress scoring >12 as was accepted according to the IACUC IL-2112-105-5.
UNO treatment—On the day of treatment, mice were anesthetized by an intraperitoneal (i.p.) injection of 100 mg/kg ketamine and 10 mg/kg of xylazine hydrochloride solution. Tumor-bearing mice were treated with 50,000 ppm of UNO delivered into the tumor by a 23 G needle over 5 minutes, at 0.2 LPM. After treatment, all mice were warmed and closely monitored until complete recovery was observed. […]

[2] = tested on: PD-L1 expression on CT26 PI negative cells; assay: In vitro UNO exposure of CT26 cells, PD-L1 expression by flow cytometry; format: cell-based, mouse
Procedure: Preparation of cells—Mouse colon carcinoma CT26.WT cells (ATCC number: CRL-2638) were grown to a 70-80% confluency and harvested using trypsin. Following, the cells were centrifuged at 1,200 revolutions per minute (rpm)—241 G for 8 minutes, then the pellet was re-suspended in 1 ml of cell media (RPMI—1640 supplemented with 10% FBS and 1% Pen-Strep). The cells were counted using an automated cell counter and a total of 2×10^6 cells were seeded into each […] containing 9 ml cell media. The plates were then placed for 24 hours in an incubator at 37° C., 5% CO2.
UNO treatment—Following 24 hours of incubation, cell media was removed, and the plate was placed in an acrylic box stationed within an operating chemical fume hood. Prior to the initiation of treatment, the box was exposed to UV for 1 hour to reduce the chances of contamination. The box was closed and sealed with parafilm. A PVC delivery line was placed within a designated hole on the top of the box and lowered until approximately 5 cm within the box. The flowmeter was set to 1 LPM to expose the cells for the durations and concentrations described in Table 3 (control cells were untreated).
Following treatment, 9 ml of cell media were added to each well and the plate was placed for 24 hours in an incubator at 37° C., 5% CO2.
Flow cytometry—Cell media was removed to a 50 ml centrifuge tube. […]

[N]=O [UNO, nitric oxide]
Percentage of mice with primary tumor complete regression ([1]; 42 days after treatments (FIG. 16)): 10% | Distant tumor rejection, percentage of mice ([1]; 42 days following treatments (FIG. 17)): 11% | Percentage of group surviving ([1]; 52 days following primary tumor inoculation): 10% | PI negative cells expressing PD-L1 ([2]; 25,000-100,000 ppm for 10 s, 30 s or 1 min, depending on dosage and time of exposure): 70-90% | Mean fluorescent intensity (MFI) of PD-L1 expression ([2]; UNO dosage and time dependent manner): increased
